Our source for the IC50, Kb and Activity values is ChEMBL document CHEMBL1649371, “Isoxazolidinyl polycyclic aromatic hydrocarbons as DNA-intercalating antitumor agents” (Eur J Med Chem, 2011).

Calls of active or inactive are those of the source. The rule behind the calls is not given here. Numbered stars: 1 amine (or outer) side, 2 acyl side, 3 side chain; on linkers, the order of the positions; unused ones are H or OH. Bridge positions count the residues as written; N and C are the ends. Square brackets hold non-standard residues; d marks the D form. Peptide text beside a SMILES is read from it. I, II: the chains in the order shown. Actinocin(1to9) = Cc1c2oc3c(C)ccc(C(=O)[*:2])c3nc-2c(C(=O)[*:1])c(N)c1=O; NMeV = CN[C@H](C(=O)O)C(C)C; Sar = CNCC(=O)O

The subject of one experiment is HeLa. Nature of the experiment: Cytotoxicity against human HeLa cells after 20 hrs by MTS assay. It counts as functional, cell-based.
For experiment [1], the system named is A549. Nature of the experiment: Cytotoxicity against human A549 cells by SRB assay. Type of experiment: functional, cell-based.
For the next experiment, the system named is MOLT-3. Nature of the experiment: Cytotoxicity against human MOLT3 cells after 20 hrs by MTS assay. Type of experiment: functional, cell-based. To be noted: MOLT-3, 20 h.
Another experiment deals with THP-1. Nature of the experiment: Cytotoxicity against human THP1 cells after 20 hrs by MTS assay. Type of experiment: functional, cell-based. To be noted: THP-1, 20 h.
The subject of a further experiment is U-937. Nature of the experiment: Cytotoxicity against human U937 cells after 20 hrs by MTS assay. It counts as functional, cell-based. To be noted: U-937, 20 h.
Another experiment deals with Vero. Briefly: Cytotoxicity against african green monkey Vero cells after 20 hrs by MTS assay. It counts as cell-based. To be noted: Chlorocebus sabaeus.
For the next experiment, the system named is Calf thymus DNA. Nature of the experiment: Binding affinity to calf thymus DNA by UV spectral analysis. It counts as nucleic-acid assay. To be noted: Bos taurus.
The test system of a further experiment is Nucleic Acid. Nature of the experiment: Binding affinity to Escherichia coli phiX174 RF1 DNA assessed as DNA unwinding in presence of topoisomerase 1 after 30 mins by electrophoresis. It counts as nucleic-acid assay.
Experiment [2] has as its system A549. Nature of the experiment: Cytotoxicity against human A549 cells assessed as decrease of viable cells at 0.5 ug/ml after 8 hrs relative to control. Type of experiment: functional.

On to `CN1O[C@@H]2C(=O)NC(=O)[C@@H]2[C@@H]1c1ccc2ccc3cccc4ccc1c2c34` (racemic), for which the half-inhibitory concentration (IC50) with HeLa was 284 µM; in the experiment on A549 [1], 328 µM; in the experiment on MOLT-3 it was 415 µM; with THP-1, 399 µM; with U-937, above 500 µM; with Vero, above 500 µM.

On to `NC[C@H]1C[C@H](c2cc3ccccc3c3ccccc23)N(Cc2ccccc2)O1` (racemic), for which the IC50 in the experiment with HeLa came to 45 µM; in the experiment with A549 [1] it was 35 µM; with MOLT-3, 50 µM; in the experiment on THP-1, 61 µM; in the experiment on U-937, 112 µM; in the experiment with Vero, 140 µM.

Take `CN1O[C@H]2C(=O)NC(=O)[C@H]2[C@@H]1c1ccc2ccc3cccc4ccc1c2c34` (racemic): the IC50 in the experiment on HeLa worked out at 135 µM; in the experiment on A549 [1], 83 µM; in the experiment with MOLT-3, 95 µM; in the experiment on THP-1 it was 102 µM; in the experiment with U-937 it was 130 µM; with Vero, 150 µM.

As to `CN1O[C@@H](CN)C[C@@H]1c1ccc2ccc3cccc4ccc1c2c34` (racemic), the concentration for half-maximal inhibition (IC50) was determined as 15 µM in the experiment with HeLa; 11 µM in the experiment on A549 [1]; 17 µM with MOLT-3; 18 µM in the experiment with THP-1; 80 µM with U-937; 110 µM in the experiment with Vero.

With `CN1O[C@H](CO)C[C@@H]1c1ccc2ccc3cccc4ccc1c2c34`, the Kb with Calf thymus DNA is 6.8 ×10³ /M.

With `NC[C@@H]1C[C@H](c2cc3ccccc3c3ccccc23)N(Cc2ccccc2)O1` (racemic), the concentration for half-maximal inhibition (IC50) stood at 50 µM in the experiment on HeLa; 32 µM in the experiment with A549 [1]; 43 µM in the experiment on MOLT-3; 55 µM in the experiment on THP-1; 154 µM with U-937; 132 µM with Vero.

Take `CN1O[C@H](CN)C[C@@H]1c1ccc2ccc3cccc4ccc1c2c34` (racemic): the IC50 is 15 µM with HeLa; 9 µM in the experiment with A549 [1]; 12 µM with MOLT-3; 19 µM with THP-1; 88 µM in the experiment with U-937; 102 µM with Vero. In addition, the result in the experiment with Nucleic Acid was Active. In the experiment on Calf thymus DNA, this molecule displayed a Kb of 9.6 ×10⁴ /M.

On to `Cc1c2oc3c(C)ccc(C(=O)N[C@@H]4C(=O)N[C@H](C(C)C)C(=O)N5CCC[C@H]5C(=O)N(C)CC(=O)N(C)[C@@H](C(C)C)C(=O)O[C@@H]4C)c3nc-2c(C(=O)N[C@@H]2C(=O)N[C@H](C(C)C)C(=O)N3CCC[C@H]3C(=O)N(C)CC(=O)N(C)[C@@H](C(C)C)C(=O)O[C@@H]2C)c(N)c1=O` [DACTINOMYCIN] (I: T[dV]P[Sar][NMeV] / II: T[dV]P[Sar][NMeV]; ester I:1-I:C, II:1-II:C; linker I:N-II:N via Actinocin(1to9)), for which the half-inhibitory concentration (IC50) with MOLT-3 is at most 1 µM. In addition, the Activity in the experiment with A549 [2] came to 40%.
